In publication PMC10327353 (Breast Cancer Research : BCR, 2023):

Experiment: Phase 1 study: safety and tolerability
Format: in vivo
Method: The maximum tolerated dose (MTD) of DZD1516 was defined based on safety data and the Bayesian optimal interval (BOIN) design (Additional file 1). The definition of DLT is provided in Additional file 1.
The AE grading was assessed according to the NCI-Common Terminology Criteria for Adverse Events (CTCAE) (version 5.0) and was monitored until 28 days after the last dose.
Eligible patients received single oral dosing of DZD1516 on Cycle 0 Day 1 (C0D1), followed by a 7-day washout. Twice daily oral dosing (bid) of DZD1516 was commenced from C1D1 in a continuous 21-day cycle until disease progression, unacceptable toxicity, or withdrawal of consent. All doses were taken under fed conditions (within 30 minutes after a meal).
Planned dosing consisted of 25, 50, 100, 200, 300, and 400 mg. Each dose escalation cohort will comprise a minimum of three and a maximum of six evaluable patients (except only one patient in the starting dose cohort). The maximum tolerated dose of DZD1516 was defined according to safety data and the Bayesian optimal interval (BOIN) design. Dose escalation/de-escalation rule with target toxicity rate for the MTD is 0.30 with interval of (0.20, 0.33).
DLTs were any adverse event (AE) not clearly attributable to the patient’s disease, including ≥ grade 4 hematological toxicities present for ≥ 4 days, grade 3 thrombocytopenia with bleeding, or grade 4 thrombocytopenia lasting for > 5 days, ≥ grade 3 non-hematological toxicities that is dose-limiting in the judgment of the investigators. Any other toxicity that is greater than that at baseline, is clinically significant or unacceptable, and is judged to be a DLT by the SRC. Exceptions included alopecia of any grade and isolated grade 3 laboratory change without clinical sequelae or clinical significance.
Safety evaluations were conducted at screening, on Day 1, 8, and 15 of Cycle 1, on Day 1 of each subsequent treatment cycle, at the end-of-treatment visit, and clinically indicated. Safety assessments included clinical laboratory measurements (hematology, chemistry, coagulation, and urinalysis), electrocardiogram (ECG), Echocardiogram/MUGA scan, ECOG performance status, vital signs, and physical examinations.

COc1cc(O[C@H]2CCN(C)CC2(F)F)c2c(Nc3ccc(Oc4ccn5ncnc5c4)c(C)c3)ncnc2c1 [DZD1516]
Alanine aminotransferase increased, Any Grade (25 mg (N = 1)): 0 (0.0) n (%)
Alanine aminotransferase increased, ≥ Grade 3 (25 mg (N = 1)): 0 (0.0) n (%)
Anemia, Any Grade (25 mg (N = 1)): 0 (0.0) n (%)
Anemia, ≥ Grade 3 (25 mg (N = 1)): 0 (0.0) n (%)
Any TEAE: Grade 3 (25 mg (N = 1)): 0 (0.0) n (%)
Any TEAE: Leading to death (25 mg (N = 1)): 0 (0.0) n (%)
Any TEAE: Leading to dose reduction (25 mg (N = 1)): 0 (0.0) n (%)
Any TEAE: Leading to treatment discontinuation (25 mg (N = 1)): 0 (0.0) n (%)
Any TEAE: Leading to treatment interruption (25 mg (N = 1)): 0 (0.0) n (%)
Any TEAE: SAE (25 mg (N = 1)): 0 (0.0) n (%)
Aspartate aminotransferase increased, Any Grade (25 mg (N = 1)): 0 (0.0) n (%)
Aspartate aminotransferase increased, ≥ Grade 3 (25 mg (N = 1)): 0 (0.0) n (%)
Blood and lymphatic system disorders, Any Grade (25 mg (N = 1)): 0 (0.0) n (%)
Blood and lymphatic system disorders, ≥ Grade 3 (25 mg (N = 1)): 0 (0.0) n (%)
Blood bilirubin increased, Any Grade (25 mg (N = 1)): 1 (100.0) n (%)
Blood bilirubin increased, ≥ Grade 3 (25 mg (N = 1)): 0 (0.0) n (%)
Cardiac disorders, Any Grade (25 mg (N = 1)): 0 (0.0) n (%)
Cardiac disorders, ≥ Grade 3 (25 mg (N = 1)): 0 (0.0) n (%)
Constipation, Any Grade (25 mg (N = 1)): 0 (0.0) n (%)
Constipation, ≥ Grade 3 (25 mg (N = 1)): 0 (0.0) n (%)
Decreased appetite, Any Grade (25 mg (N = 1)): 0 (0.0) n (%)
Decreased appetite, ≥ Grade 3 (25 mg (N = 1)): 0 (0.0) n (%)
Dizziness, Any Grade (25 mg (N = 1)): 0 (0.0) n (%)
Dizziness, ≥ Grade 3 (25 mg (N = 1)): 0 (0.0) n (%)
Drug-related TEAE: Grade 3 (25 mg (N = 1)): 0 (0.0) n (%)
Drug-related TEAE: Leading to death (25 mg (N = 1)): 0 (0.0) n (%)
Drug-related TEAE: Leading to dose reduction (25 mg (N = 1)): 0 (0.0) n (%)
Drug-related TEAE: Leading to treatment discontinuation (25 mg (N = 1)): 0 (0.0) n (%)
Drug-related TEAE: Leading to treatment interruption (25 mg (N = 1)): 0 (0.0) n (%)
Drug-related TEAE: SAE (25 mg (N = 1)): 0 (0.0) n (%)
Fatigue, Any Grade (25 mg (N = 1)): 0 (0.0) n (%)
Fatigue, ≥ Grade 3 (25 mg (N = 1)): 0 (0.0) n (%)
Gastrointestinal disorders, Any Grade (25 mg (N = 1)): 0 (0.0) n (%)
Gastrointestinal disorders, ≥ Grade 3 (25 mg (N = 1)): 0 (0.0) n (%)
General disorders and administration site conditions, Any Grade (25 mg (N = 1)): 0 (0.0) n (%)
General disorders and administration site conditions, ≥ Grade 3 (25 mg (N = 1)): 0 (0.0) n (%)
Headache, Any Grade (25 mg (N = 1)): 0 (0.0) n (%)
Headache, ≥ Grade 3 (25 mg (N = 1)): 0 (0.0) n (%)
Hemoglobin decreased, Any Grade (25 mg (N = 1)): 0 (0.0) n (%)
Hemoglobin decreased, ≥ Grade 3 (25 mg (N = 1)): 0 (0.0) n (%)
Investigations, Any Grade (25 mg (N = 1)): 1 (100.0) n (%)
Investigations, ≥ Grade 3 (25 mg (N = 1)): 0 (0.0) n (%)
Lipase increased, Any Grade (25 mg (N = 1)): 0 (0.0) n (%)
Lipase increased, ≥ Grade 3 (25 mg (N = 1)): 0 (0.0) n (%)
Malaise, Any Grade (25 mg (N = 1)): 0 (0.0) n (%)
Malaise, ≥ Grade 3 (25 mg (N = 1)): 0 (0.0) n (%)
Metabolism and nutrition disorders, Any Grade (25 mg (N = 1)): 0 (0.0) n (%)
Metabolism and nutrition disorders, ≥ Grade 3 (25 mg (N = 1)): 0 (0.0) n (%)
Musculoskeletal and connective tissue disorders, Any Grade (25 mg (N = 1)): 0 (0.0) n (%)
Musculoskeletal and connective tissue disorders, ≥ Grade 3 (25 mg (N = 1)): 0 (0.0) n (%)
Nausea, Any Grade (25 mg (N = 1)): 0 (0.0) n (%)
Nausea, ≥ Grade 3 (25 mg (N = 1)): 0 (0.0) n (%)
Nervous system disorders, Any Grade (25 mg (N = 1)): 0 (0.0) n (%)
Nervous system disorders, ≥ Grade 3 (25 mg (N = 1)): 0 (0.0) n (%)
Participants with any TEAE, Any Grade (25 mg (N = 1)): 1 (100.0) n (%)
Participants with any TEAE, ≥ Grade 3 (25 mg (N = 1)): 0 (0.0) n (%)
Platelet count decreased, Any Grade (25 mg (N = 1)): 0 (0.0) n (%)
Platelet count decreased, ≥ Grade 3 (25 mg (N = 1)): 0 (0.0) n (%)
Proteinuria, Any Grade (25 mg (N = 1)): 0 (0.0) n (%)
Proteinuria, ≥ Grade 3 (25 mg (N = 1)): 0 (0.0) n (%)
Renal and urinary disorders, Any Grade (25 mg (N = 1)): 0 (0.0) n (%)
Renal and urinary disorders, ≥ Grade 3 (25 mg (N = 1)): 0 (0.0) n (%)
Subjects with any TEAE (25 mg (N = 1)): 1 (100.0) n (%)
Subjects with any drug-related TEAE (25 mg (N = 1)): 1 (100.0) n (%)
Vomiting, Any Grade (25 mg (N = 1)): 0 (0.0) n (%)
Vomiting, ≥ Grade 3 (25 mg (N = 1)): 0 (0.0) n (%)
White blood cell count decreased, Any Grade (25 mg (N = 1)): 0 (0.0) n (%)
White blood cell count decreased, ≥ Grade 3 (25 mg (N = 1)): 0 (0.0) n (%)
Alanine aminotransferase increased, Any Grade (50 mg (N = 4)): 1 (25.0) n (%)
Alanine aminotransferase increased, ≥ Grade 3 (50 mg (N = 4)): 0 (0.0) n (%)
Anemia, Any Grade (50 mg (N = 4)): 0 (0.0) n (%)
Anemia, ≥ Grade 3 (50 mg (N = 4)): 0 (0.0) n (%)
Any TEAE: Grade 3 (50 mg (N = 4)): 0 (0.0) n (%)
Any TEAE: Leading to death (50 mg (N = 4)): 0 (0.0) n (%)
Any TEAE: Leading to dose reduction (50 mg (N = 4)): 0 (0.0) n (%)
Any TEAE: Leading to treatment discontinuation (50 mg (N = 4)): 0 (0.0) n (%)
Any TEAE: Leading to treatment interruption (50 mg (N = 4)): 0 (0.0) n (%)
Any TEAE: SAE (50 mg (N = 4)): 0 (0.0) n (%)
Aspartate aminotransferase increased, Any Grade (50 mg (N = 4)): 1 (25.0) n (%)
Aspartate aminotransferase increased, ≥ Grade 3 (50 mg (N = 4)): 0 (0.0) n (%)
Blood and lymphatic system disorders, Any Grade (50 mg (N = 4)): 0 (0.0) n (%)
Blood and lymphatic system disorders, ≥ Grade 3 (50 mg (N = 4)): 0 (0.0) n (%)
Blood bilirubin increased, Any Grade (50 mg (N = 4)): 0 (0.0) n (%)
Blood bilirubin increased, ≥ Grade 3 (50 mg (N = 4)): 0 (0.0) n (%)
Cardiac disorders, Any Grade (50 mg (N = 4)): 0 (0.0) n (%)
Cardiac disorders, ≥ Grade 3 (50 mg (N = 4)): 0 (0.0) n (%)
Constipation, Any Grade (50 mg (N = 4)): 0 (0.0) n (%)
Constipation, ≥ Grade 3 (50 mg (N = 4)): 0 (0.0) n (%)
Decreased appetite, Any Grade (50 mg (N = 4)): 0 (0.0) n (%)
Decreased appetite, ≥ Grade 3 (50 mg (N = 4)): 0 (0.0) n (%)
Dizziness, Any Grade (50 mg (N = 4)): 0 (0.0) n (%)
Dizziness, ≥ Grade 3 (50 mg (N = 4)): 0 (0.0) n (%)
Drug-related TEAE: Grade 3 (50 mg (N = 4)): 0 (0.0) n (%)
Drug-related TEAE: Leading to death (50 mg (N = 4)): 0 (0.0) n (%)
Drug-related TEAE: Leading to dose reduction (50 mg (N = 4)): 0 (0.0) n (%)
Drug-related TEAE: Leading to treatment discontinuation (50 mg (N = 4)): 0 (0.0) n (%)
Drug-related TEAE: Leading to treatment interruption (50 mg (N = 4)): 0 (0.0) n (%)
Drug-related TEAE: SAE (50 mg (N = 4)): 0 (0.0) n (%)
Fatigue, Any Grade (50 mg (N = 4)): 0 (0.0) n (%)
Fatigue, ≥ Grade 3 (50 mg (N = 4)): 0 (0.0) n (%)
Gastrointestinal disorders, Any Grade (50 mg (N = 4)): 0 (0.0) n (%)
Gastrointestinal disorders, ≥ Grade 3 (50 mg (N = 4)): 0 (0.0) n (%)
General disorders and administration site conditions, Any Grade (50 mg (N = 4)): 0 (0.0) n (%)
General disorders and administration site conditions, ≥ Grade 3 (50 mg (N = 4)): 0 (0.0) n (%)
Headache, Any Grade (50 mg (N = 4)): 1 (25.0) n (%)
Headache, ≥ Grade 3 (50 mg (N = 4)): 0 (0.0) n (%)
Hemoglobin decreased, Any Grade (50 mg (N = 4)): 2 (50.0) n (%)
Hemoglobin decreased, ≥ Grade 3 (50 mg (N = 4)): 0 (0.0) n (%)
Investigations, Any Grade (50 mg (N = 4)): 3 (75.0) n (%)
Investigations, ≥ Grade 3 (50 mg (N = 4)): 0 (0.0) n (%)
Lipase increased, Any Grade (50 mg (N = 4)): 2 (50.0) n (%)
Lipase increased, ≥ Grade 3 (50 mg (N = 4)): 0 (0.0) n (%)
Malaise, Any Grade (50 mg (N = 4)): 0 (0.0) n (%)
Malaise, ≥ Grade 3 (50 mg (N = 4)): 0 (0.0) n (%)
Metabolism and nutrition disorders, Any Grade (50 mg (N = 4)): 1 (25.0) n (%)
Metabolism and nutrition disorders, ≥ Grade 3 (50 mg (N = 4)): 0 (0.0) n (%)
Musculoskeletal and connective tissue disorders, Any Grade (50 mg (N = 4)): 1 (25.0) n (%)
Musculoskeletal and connective tissue disorders, ≥ Grade 3 (50 mg (N = 4)): 0 (0.0) n (%)
Nausea, Any Grade (50 mg (N = 4)): 0 (0.0) n (%)
Nausea, ≥ Grade 3 (50 mg (N = 4)): 0 (0.0) n (%)
